Results as given in patent US20050148553A1, “Use of tigecycline, alone, or in combination with rifampin to treat osteomyelitis and/or septic arthritis” (priority 2003, published 2005).
≈ marks a conversion by molar mass, not a printed value. Where “and” joins values, the source holds several entries; their conditions need not be identical. Identical values can stand only once. Like-named read-outs stand apart in the source and are kept apart here.

Assays:
[1] = test system: Acinetobacter baumannii; experiment: Compassionate use study, osteomyelitis patient; format: in vivo, human; details: one human patient
Method: The patient was treated with meropenem and tobramycin. […] The patient was then treated with tigecycline for two months with either 50 mg every 12 hours or 50 mg every 24 hours.

[2] = test system: methicillin-resistant S. aureus; experiment: microbe, parasite or virus in culture; format: cell-based, Staphylococcus aureus; details: for MBC / MIC: Staphylococcus aureus; for MBC: read-out: minimum bactericidal concentration (MBC); for MIC: read-out: minimum inhibitory concentration (MIC)
Method: The minimum inhibitory concentrations (MIC) of tigecycline, vancomycin and rifampin were determined using an antibiotic two-fold tube-dilution method. The minimum bactericidal concentrations were also determined. The limits of sensitivity of this method were 25 μg/ml to 0.20 μg/ml.

[3] = Antibiotic levels in rabbit serum and bone by diffusion bioassay; format: in vivo, New Zealand white rabbits; details: infected rabbits; tigecycline 14 mg/kg, vancomycin 30 mg/kg twice daily
Method: Normal NZW rabbit serum (Fisher Scientific) and normal, uninfected rabbit tibia bone were used to generate standard curves for tigecycline (Wyeth-Ayerst Research, Pearl River, N.Y.), vancomycin (Abbott Laboratories, Chicago, Ill.), and rifampin (Merrell Pharmaceuticals Inc. Kansas, Mo.). Bioassays were performed with each drug to generate the standard curves for antibiotic concentration in serum and/or tibial bone.
The organism used for the bioassay was Bacillus cereus ATCC11778. Serum standards were prepared using two-fold serial dilutions with either antibiotic to yield concentrations of 25 μg/ml to 0.20 μg/ml drug in Normal NZW rabbit serum. Bone eluate standards were prepared for tigecycline by thoroughly cleaning noninfected rabbit tibias with 70% ethanol in a sterilized fume hood. Each tibia was broken into small chips of approximately 0.5 cm^2 using a grinder. The chips were placed into a sterile, 50 ml conical centrifuge tube and weighed. One milliliter of sterile, 0.9% normal saline was added for each gram of bone chips. The solution was thoroughly vortexed for two minutes. The resulting bone eluate was allowed to shake at 180 rpm in a cold room at 4° C., for 12 hours. The samples were centrifuged at 4000 rpm for 3 minutes prior to assay, to pellet the chips.
The diameter of the zone of growth inhibition around each well was measured, in millimeters. A standard curve was generated for tigecycline concentration in both serum and bone eluate and for vancomycin in serum by plotting the known antibiotic concentration against its resulting zone of inhibition measurement. […]
Serum samples were stored at −70° C. until the bioassay was performed. […] The diameter of the zone of growth inhibition around each well was measured and concentrations of tigecycline were extrapolated from the standard curve.
Peak and trough levels of antibiotic were determined for Groups 2 and 4 at 1 hour (peak) and 12 hour (trough) after the initial antibiotic administration. Antibiotic concentrations were determined by means of a bioassay. […]

[4] = Adverse events and weight variance in infected treated rabbits; details: infected rabbits after antibiotic treatment
Description: All rabbits were monitored weekly for weight variance. […] The key for FIGS. 4A and B is as follows: Control=control group, no treatment; Vancomycin=subcutaneous vancomycin treated group; Vanco+Rifampin=subcutaneous vancomycin with oral rifampin treated group; Gar-936=subcutaneous Gar-936 treated group; Gar-936+Rifampin=subcutaneous Gar-936 with oral Rifampin treated group.

[5] = test system: methicillin-resistant S. aureus
Method: Preparation of the Infective Media: S. aureus was incubated overnight in Mueller Hinton Broth (Difco Laboratories, Detroit, Mich.) medium spiked with 40 μg/ml oxacillin, at 37° C. The bacterial concentration of the culture was adjusted to 10^7 CFU's/ml.
Rabbit Infection Procedure: New Zealand white rabbits (Ray Nicholl's Rabbitry, Lumberton, Tex.), eight to 12 weeks old and weighing 2.0 to 3.5 kg, were utilized for the study. After anesthesia was given, an 18-gauge needle was inserted percutaneously through the lateral aspect of the left tibial metaphysis into the intramedullary cavity. Next, 0.15 ml of 5% sodium morrhuate (American Regent Laboratories, Inc., Shirley, N.Y.), 0.1 ml of S. aureus (10^7 CFU/ml), and 0.2 ml of sterile, normal saline, 0.9%, were injected sequentially.
Group 1 (control group): infected but left untreated for the duration of the study. Group 2: rabbits were treated for 4 weeks with subcutaneous vancomycin at 30 mg/kg twice daily. Group 3: rabbits were treated for 4 weeks with subcutaneous vancomycin at 30 mg/kg twice daily plus oral rifampin at 40 mg/kg twice daily in 0.5% methylcellulose. Group 4: rabbits were treated for 4 weeks with subcutaneous tigecycline at 14 mg/kg twice daily. Group 5: rabbits were treated for 4 weeks with subcutaneous tigecycline at the same dose as in the rabbits in Group 4, plus oral rifampin at 40 mg/kg twice daily in 0.5% methylcellulose. […] Group 6: rabbits were treated for 1 week with subcutaneous tigecycline at the same dose as in Group 4, but were sacrificed 3 hours after administration of the last dose. At that time, blood and infected bone samples were collected and tigecycline concentration was determined. Groups 1 to 5 were left untreated for 2 weeks after treatment phase of the experiment and sacrificed at 8 weeks after infection.
Radiographs of bilateral tibias were taken at initiation of therapy (2 weeks after infection), at the end of antibiotic therapy (6 weeks after infection), and at sacrifice (8 weeks after infection). Radiographs were scored according to a visual scale (Table 1) by three investigators, each blinded to the treatment group, and the grades were averaged.
After sacrifice, gross cultures were performed for right and left tibias. Quantitative counts of S. aureus, in CFUs per gram, of left tibial bone and marrow were determined for all study groups.
Culture Preparation: The bone marrow and the intramedullary canal of bilateral tibias were swabbed with sterile cotton tip applicators for gross cultures analysis of left tibias and quality assurance checks of right tibias. The inoculated applicator was streaked onto blood plates and then placed into 5 ml of sterile TSB. The plates and tubes were then incubated at 37° C. for 24 hours and growth and/or turbidity was recorded.
The bone marrow was placed into a sterile, 50 ml centrifuge tube and weighed. The bone fragments were broken into 0.5 cm^2 chips, placed into a sterile, 50 ml centrifuge tube, and the final product weighed. Normal sterile saline, 0.9%, was added in a 3 to 1 ratio (3 ml saline/gram of bone or marrow) and the suspensions were vortexed for 2 minutes. Six ten-fold dilutions of each suspension were prepared with sterile, normal saline, 0.9%. Twenty-microliter samples of each dilution, including the initial suspension, was plated, in triplicate, onto blood agar plates and incubated at 37° C. for 24 hours. CFUs were counted at the greatest dilution for each tibia sample.

[6] = test system: Mycobacterium abscessus; format: in vivo, human; details: human, in vivo
Method: Debridement was accomplished after one year of infection with placement of hardware. […] The amikacin was later stopped due to renal damage. Linezolid and azithromycin were later added to the treatment regimen. The organism was determined to be resistant to moxifloxacin.
The patient presented later with a new vertebral osteomyelitis just above the site of the old infection. A biopsy was performed and it was determined that no additional debridement was needed. […] Tigecycline was administered up to MIC 0.25 micrograms/ml. The patient's white blood cell count was normal while hypogammaglobulinemia was present and lymphocytic function decreased. The patient had also been under treatment with IL-12, but IL-12 was held during antibiotic treatment.

[7] = test system: M. abcessus; experiment: Susceptibility/MIC of patient isolate, compassionate use study; format: cell-based, Mycobacterium abscessus; details: M. abscessus patient isolate
[8] = test system: A. baumanii; experiment: Susceptibility of patient isolate; format: cell-based, Acinetobacter baumannii; details: A. baumanii from patient bone
[9] = average grade, t=14 versus t=56 days
[10] = individual rabbits, left tibia, 8 weeks after infection

C[C@H]1[C@H](NC(=O)/C(=N\OC(C)(C)C(=O)O)c2csc(N)n2)C(=O)N1S(=O)(=O)O [Aztreonam]
adverse event leading to discontinuation [1]: persistent eosinophilia

C[C@@H](O)[C@H]1C(=O)N2C(C(=O)O)=C(S[C@@H]3CN[C@H](C(=O)N(C)C)C3)[C@H](C)[C@H]12 [Meropenem]
adverse event leading to discontinuation [1]: eosinophilia

CN[C@H](CC(C)C)C(=O)N[C@H]1C(=O)N[C@@H](CC(N)=O)C(=O)N[C@H]2C(=O)N[C@H]3C(=O)N[C@H](C(=O)N[C@H](C(=O)O)c4cc(O)cc(O)c4-c4cc3ccc4O)[C@H](O)c3ccc(c(Cl)c3)Oc3cc2cc(c3O[C@@H]2O[C@H](CO)[C@@H](O)[C@H](O)[C@H]2O[C@H]2C[C@](C)(N)[C@H](O)[C@H](C)O2)Oc2ccc(cc2Cl)[C@H]1O [Vancomycin]
MIC/MBC ratio ([2]; MRSA study strain): 0.5
MBC ([2]; MRSA): 0.78 µg/mL (≈ 0.538 µM)
MIC ([2]; MRSA): 0.39 µg/mL (≈ 0.269 µM)
antibiotic serum levels (peaks and troughs) [3]: above minimum inhibitory concentrations
mean weight gain [4]: 0.39 kg
radiographic improvement (grade) [5, 9]: 0.5+/−0.2
radiographic improvement (percent) [5, 9]: 25%
percentage of bone samples positive for MRSA ([5]; bone cultures): 18.2%
rabbits/samples positive for MRSA in bone ([5]; bone cultures at sacrifice): 2 out of 11
proportion of positive cultures in marrow ([5]; compared with 0.33 (5/15) in control group): not statistically significantly different from the control group
Counts (CFU/gm) Bone [5, 10]: 270.3 CFU/gm and 1315.8 CFU/gm and 0 CFU/gm (14×)
Counts (CFU/gm) Marrow [5, 10]: 1250 CFU/gm and 0 CFU/gm (15×)
average bacterial concentration of the group ([5]; tibia bone): 1.4×10^2 CFU/gram bone

NCC[C@H](O)C(=O)N[C@@H]1C[C@H](N)[C@@H](O[C@H]2O[C@H](CN)[C@@H](O)[C@H](O)[C@H]2O)[C@H](O)[C@H]1O[C@H]1O[C@H](CO)[C@@H](O)[C@H](N)[C@H]1O [amikacin, reference compound]
adverse event leading to discontinuation [6]: renal damage

CO[C@@]1(NC(=O)Cc2cccs2)C(=O)N2C(C(=O)O)=C(COC(N)=O)CS[C@@H]21 [cefoxitin, reference compound]
susceptibility of the organism [7]: sensitive

O=C(O)c1cn(C2CC2)c2cc(N3CCNCC3)c(F)cc2c1=O [ciprofloxacin]
susceptibility of the organism [8]: resistant

CO[C@H]1/C=C/O[C@@]2(C)Oc3c(C)c(O)c4c(O)c(c(/C=N/N5CCN(C)CC5)c(O)c4c3C2=O)NC(=O)/C(C)=C\C=C\[C@H](C)[C@H](O)[C@@H](C)[C@@H](O)[C@@H](C)[C@H](OC(C)=O)[C@@H]1C [rifampin]
MIC/MBC ratio ([2]; MRSA study strain): 0.5
MIC ([2]; MRSA, MRSA study strain, inoculum 10^6 CFU/ml): 0.78 µg/mL (≈ 0.948 µM)
MBC ([2]; MRSA study strain, inoculum 10^6 CFU/ml): 1.56 µg/mL (≈ 1.9 µM)
bacterial outcome in bone and marrow, in words ([5]; end of study, MRSA infected rabbits): bactericidal activity

NC[C@H]1O[C@H](O[C@H]2[C@H](O)[C@@H](O[C@H]3O[C@H](CO)[C@@H](O)[C@H](N)[C@H]3O)[C@H](N)C[C@@H]2N)[C@H](N)C[C@@H]1O [tobramycin]
adverse event leading to discontinuation [1]: increased creatinine
susceptibility of the organism [8]: susceptible

gentamicin
susceptibility of the organism [8]: susceptible
